This is an account of results in PubChem BioAssay (NCI).

Test systems include MOLT-4 leukemia; PC-3 prostate; K-562 leukemia; DU-145 prostate; SF-539 CNS; SK-MEL-5 melanoma; A498 renal; NCI-H23 lung; A549 NSCLC; OVCAR-3 ovarian.
Common to all, as to experiment: NCI-60 cell line screen, 48 h

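Following 48 hours of exposure in 96-well plates, responses at five concentrations were used to interpolate endpoints linearly. GI50: concentration for 50% inhibition of growth. TGI: total growth inhibition.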

Regarding `Nc1ncnc2c1c(C(=O)NO)cn2C1OC(CO)C(O)C1O` (centres undefined), the GI50 is 306 nM with MOLT-4 leukemia; 286 nM in the assay on PC-3 prostate; 790 nM in the assay on K-562 leukemia; 224 nM in the assay on DU-145 prostate; 551 nM with SF-539 CNS; 739 nM in the assay with SK-MEL-5 melanoma. For the same molecule, the GI50 in the assay with A498 renal was 915 nM; in the assay with NCI-H23 lung, 329 nM; in the assay with A549 NSCLC, 462 nM; in the assay with OVCAR-3 ovarian it was 278 nM. Also, the TGI is 1660 nM in the assay on MOLT-4 leukemia; greater than 41900 nM with PC-3 prostate; greater than 100000 nM in the assay with K-562 leukemia; 3010 nM with SF-539 CNS; 2150 nM in the assay on SK-MEL-5 melanoma; 6900 nM with A498 renal. The TGI was 2890 nM in the assay on NCI-H23 lung, greater than 40400 nM with A549 NSCLC and 2420 nM with OVCAR-3 ovarian.
